Results published in patent US9993570B2, “Radiolabeled tracers for poly (ADP-ribose) polymerase-1 (PARP-1), methods and uses therefor” (Washington University, priority 2014, dated 2018).
Entries after “also recorded” stand apart in the source; their conditions may differ.

Legend:
[1] = system: MDA-MB-436 tumors; test: microPET imaging with [18F]12, MDA-MB-436 xenograft tumors; assay type: in vivo, mice; settings: baseline, 0-60 min post-tracer injection
Experimental: This example illustrates the visualization of tumor tissue in microPET in mice. MDA-MB-436 human breast cancer xenograft tumors in immune-deficient mice were visualized by PET using [^18F]12.
MDA-MB-436 and MDA-MB-231 human breast cancer cells were maintained in cell culture under standard conditions with 5% CO2 atmosphere using Eagle's minimum essential medium (with Earle's balanced salt solution and 2 mM L-glutamine) supplemented with 2 mM E-glutamine, 1 mM sodium pyruvate, 0.1 mM non-essential amino acids 2% vitamins for MEM, and 5% fetal bovine serum. Cells in exponential growth were trypsinized and harvested for tumor implantation. After counting, cells were re-suspended in ice-cold 1:1 Matrigel and PBS to give the desired concentration and held on ice.
Mature female athymic nu/nu mice from Charles River Laboratories are allowed to acclimate in an AALAC accredited housing facility for at least 1 week prior to tumor implantation for these serial imaging studies. Female nu/nu mice were implanted in the mammary fat pads (near the auxiliary lymph nodes) with ˜8×10^6 MDA-MB-436 breast cancer cells in ˜100 μL of 1:1 Matrigel:PBS. Imaging studies were conducted 2-3 weeks post implantation.
Tumor-bearing mice were placed in an induction chamber containing ˜2% isoflurane/oxygen and then secured to a custom double bed for placement of tail vein catheters; anesthesia was maintained via nose-cone at ˜1% isoflurane/oxygen for the dynamic imaging procedure. The mice were injected with 150-200 μCi of [^18F]12 and scanned for 0-60 min using Focus 220 and Inveon PET/CT scanners. The standard uptake values (SUVs) were generated from manually drawn regions of interests for tumors and surrounding ‘background’ tissue. Visualization of specific uptake was determined by comparison of baseline scans with images acquired by tracer injection 20 minutes after pre-treatment with the blocking agents olaparib (50 mg/kg, IP) or 12 (1 mg/kg, IP).

[2] = Estimated human dosimetry from mouse biodistribution study (MIRD)
Source text: Estimates were obtained from the organ residence times calculated from the mouse biodistribution data, shown in Table 1, using standard MIRD methodology.

[3] = system: head and neck cell lines SCC1 and SCC25; test: [18F]WC-4-138 uptake in cell culture, head and neck lines; assay type: cell-based; settings: SCC1 and SCC25, incubation 5, 30 or 60 minutes, normalized to protein
Experimental: In these experiments, the head and neck squamous cell carcinoma lines SCC1, SCC15, and SCC25 (ATCC) were propagated in Dulbecco's Modified Eagle's Medium (DMEM, Gibco) supplemented with 10% Fetal Bovine Serum (FBS, Gibco), Penicillin-Streptomycin (P/S, Gibco), and 100 ng/ml hydrocortisone (Sigma-Aldrich). The small cell lung cancer lines NCI-h69 and NCI-h82 (ATCC) were propagated m RPMI Medium (Gibco) supplemented with 10% FBS and 1% P/S. The human breast cancer cell line MDA-MB-231 (ATCC) was propagated in Eagle's Minimum Essential Medium (Gibco) supplemented with 5% FBS, 2% Vitamins for MEM (Gibco), 1% 200 mM L-glutamine (Gibco), 1% 10 mM Non-Essential Amino Acid (NEAA, Gibco).
For each experimental replicate, approximately 1 μCi of [^18F]WC-4-138 was diluted in 1 ml of cell culture medium and added to 10^6 cells. After 5, 30, or 60 minutes, the medium was collected and cells were washed twice in 0.7 ml Phosphate Buffered Saline (PBS, Gibco). Adherent cells were collected by scraping the cell culture dish and transferring to a microfuge tube. Radioactivity was measured in the collected medium, PBS, or cell pellets. Protein from the cell pellet was quantified using a […]. All data were decay-corrected and normalized to total protein quantity in the cell pellet. For drug treatment studies, cells were incubated with 10 μM Olaparib or Iniparib twenty-hours prior to incubation with [^18F]WC-4-138.
The head and neck cell lines SCC1 and SCC25 constitutively take up small amounts of tracer, registering as 0.001-0.002 μCi/μg in the cell pellet (FIG. 5A). […] Radioactivity was measured in head and neck squamous cell cancer (HNSCC) lines (SCC1 and SCC25) or small cell lung cancer (SCLC) lines (NCI-h69 and NCI-h82) after incubation with [^18F]WC-4-138 for 5, 30, or 60 minutes (n=3 at each time point). […] PARP activity was measured in HNSCC or lung SCLC cells. (FIG. 5C-D) [^18F]WC-4-138 uptake was measured in HNSCC cell lines treated with olaparib or iniparib. […]

Estimated human dosimetry, Adrenals ([2]; Female): 0.052 rad/mCi
Estimated human dosimetry, Brain ([2]; Female): 0.022 rad/mCi
Estimated human dosimetry, Breasts ([2]; Female): 0.019 rad/mCi
Estimated human dosimetry, Effective Dose ([2]; Female): 0.057 rem/mCi
Estimated human dosimetry, Effective Dose Equivalent ([2]; Female): 0.075 rad/mCi
Estimated human dosimetry, Gallbladder Wall ([2]; Female): 0.033 rad/mCi
Estimated human dosimetry, Heart Wall ([2]; Female): 0.047 rad/mCi
Estimated human dosimetry, Kidneys ([2]; Female): 0.093 rad/mCi
Estimated human dosimetry, LLI Wall ([2]; Female): 0.036 rad/mCi
Estimated human dosimetry, Liver ([2]; Female): 0.065 rad/mCi
Estimated human dosimetry, Lungs ([2]; Female): 0.045 rad/mCi
Estimated human dosimetry, Muscle ([2]; Female): 0.035 rad/mCi
Estimated human dosimetry, Osteogenic Cells ([2]; Female): 0.203 rad/mCi
Estimated human dosimetry, Ovaries ([2]; Female): 0.045 rad/mCi
Estimated human dosimetry, Pancreas ([2]; Female): 0.064 rad/mCi
Estimated human dosimetry, Red Marrow ([2]; Female): 0.069 rad/mCi
Estimated human dosimetry, Skin ([2]; Female): 0.019 rad/mCi
Estimated human dosimetry, Small Intestine ([2]; Female): 0.030 rad/mCi
Estimated human dosimetry, Spleen ([2]; Female): 0.133 rad/mCi
Estimated human dosimetry, Stomach Wall ([2]; Female): 0.030 rad/mCi
Estimated human dosimetry, Thymus ([2]; Female): 0.026 rad/mCi
Estimated human dosimetry, Thyroid ([2]; Female): 0.038 rad/mCi
Estimated human dosimetry, Total Body ([2]; Female): 0.039 rad/mCi
Estimated human dosimetry, ULI Wall ([2]; Female): 0.031 rad/mCi
Estimated human dosimetry, Urinary Bladder Wall ([2]; Female): 0.301 rad/mCi
Estimated human dosimetry, Uterus ([2]; Female): 0.053 rad/mCi
Estimated human dosimetry, Adrenals ([2]; Male): 0.043 rad/mCi
Estimated human dosimetry, Brain ([2]; Male): 0.019 rad/mCi
Estimated human dosimetry, Effective Dose ([2]; Male): 0.047 rem/mCi
Estimated human dosimetry, Effective Dose Equivalent ([2]; Male): 0.062 rad/mCi
Estimated human dosimetry, Gallbladder Wall ([2]; Male): 0.028 rad/mCi
Estimated human dosimetry, Heart Wall ([2]; Male): 0.038 rad/mCi
Estimated human dosimetry, Kidneys ([2]; Male): 0.083 rad/mCi
Estimated human dosimetry, LLI Wall ([2]; Male): 0.029 rad/mCi
Estimated human dosimetry, Liver ([2]; Male): 0.050 rad/mCi
Estimated human dosimetry, Lungs ([2]; Male): 0.035 rad/mCi
Estimated human dosimetry, Muscle ([2]; Male): 0.026 rad/mCi
Estimated human dosimetry, Osteogenic Cells ([2]; Male): 0.155 rad/mCi
Estimated human dosimetry, Pancreas ([2]; Male): 0.055 rad/mCi
Estimated human dosimetry, Red Marrow ([2]; Male): 0.061 rad/mCi
Estimated human dosimetry, Skin ([2]; Male): 0.016 rad/mCi
Estimated human dosimetry, Small Intestine ([2]; Male): 0.026 rad/mCi
Estimated human dosimetry, Spleen ([2]; Male): 0.110 rad/mCi
Estimated human dosimetry, Stomach Wall ([2]; Male): 0.024 rad/mCi
Estimated human dosimetry, Testes ([2]; Male): 0.022 rad/mCi
Estimated human dosimetry, Thymus ([2]; Male): 0.020 rad/mCi
Estimated human dosimetry, Thyroid ([2]; Male): 0.033 rad/mCi
Estimated human dosimetry, Total Body ([2]; Male): 0.031 rad/mCi
Estimated human dosimetry, ULI Wall ([2]; Male): 0.025 rad/mCi
Estimated human dosimetry, Urinary Bladder Wall ([2]; Male): 0.220 rad/mCi
Structure (SMILES): O=C1NCCn2c(-c3ccc(OCC[18F])cc3)nc3cccc1c32 [[^18F]12]
[18F]12 uptake in MDA-MB-436 tumors (microPET) [1]: increased uptake that was distinguishable from background; also recorded: progressively accumulated in the tumor; also recorded: accumulation of the radioactivity in these tumors
tracer uptake in the cell pellet [3]: 0.001-0.002 μCi/μg
